The subject of test [1] is cSCC keratinocytes. Description: Cell Death Detection ELISA (apoptosis, cytoplasmic nucleosomes) in cSCC cells. Format: cell-based, human. The settings on record: GW843682X 10 μM, BI2536 5 μM, relative to drug vehicle control. On the procedure: Apoptosis was detected using the Cell Death Detection ELISA^PLUS (Roche Diagnostics Ltd, West Sussex, UK). Cells were seeded in 24-well plates at 0.5×10^5 cells/well for 24 hours and either transfected with siRNA or treated with small molecule inhibitors for 24 or 16 hours respectively before collecting lysates and performing ELISA as described by manufacturer.
For orientation: In an ELISA, binding on a coated surface is turned into a signal by an enzyme label.

Test [2] has as its system normal human keratinocytes (NHK). The test is described as follows: MTS cell viability assay in normal keratinocytes. The following applies: 72 hours, GW843682X 10 μM, BI2536 5 μM. The format is cell-based. On the procedure:
For RNAi transfection, cells were seeded in 6-well plates at 2.5×10^5 cells/well and 24 hours later transfected as described above. Cells were left for 16 hours then trypsinized, counted on a CASY counter (Roche Diagnostics Ltd, West Sussex, UK) and seeded in 96 well plates at 3000 cells/well in 100 μl media. Cell viability was determined using the MTS assay as described above, with an absorbance reading at time of seeding (T0) and readings 48 and 72 hour post transfection. For small molecule inhibitor treatment cells were seeded in 96-well plates at 3000 cells/well and 24 hours later 100 μl fresh media containing drug at the designated final concentrations added. Viability was assessed as before.
(In general: Tetrazolium dyes change colour on reduction, which living cells bring about.)

In a further test the test system is SCCIC1 xenograft tumors. The test is described as follows: SCCIC1 xenograft tumor treatment in SCID mice. Format: in vivo, SCID Balb/c mice. How it is done: FIG. 6—PLK1 inhibition and c20orf20 knockdown inhibits tumor growth in vivo. Female SCID Balb/c mice were subcutaneously injected in the right flank with 4×10^6 SCCIC1 cells mixed with high-concentration Matrigel®. When tumors reached a volume of 100 mm^3, animals were organised in treated and control groups. (A) Top panel: SCCIC1 tumors were treated with the PLK1 inhibitor, BI 2536. The treated group (n=3) was injected into the tumor with 100 μl of BI 2536 formulated in hydrochloric acid (0.1 N), diluted with 0.9% NaCl at a dose of 25 mg/kg, 3 times a week during 2 weeks. The control group (n=2) was injected with the vehicle at the same schedule. Tumor volumes were measured 3 times a week with a calliper for a further 2 weeks after treatment. Bottom panel: SCCIC1 tumors were treated with c20orf20 siRNA. The treated group (n=3) was injected into the tumor with 580 pmol c20orf20 targeting siRNA duplex in 100 μl PBS. The control group was injected with 580 pmol non-targeting siRNA duplex in approximately 100 μl PBS. Each group was treated every other day for 16 cycles. The animals were sacrificed 2 days after the last treatment. (B) Representative H&E stained section (top) and keratin immunostained section (bottom) of control (left) and BI2536-treated (right) SCCIC1 tumors after 2 weeks of treatment. A subset of animals was sacrificed at the end of the 6 cycles of treatment without waiting 2 more weeks. […] The control tumors contained numerous SCCIC1 cells (100× magnification). (C) Representative pictures from the experiment shown in (A) of vehicle (top left, tumor bisected showing both halves delineated by the dashed line) and BI2536-treated (top right) SCCIC1 tumors. […]
Primary keratinocytes were isolated and grown in the presence of a mitotically inactivated 3T3 feeder layer as described (Rheinwald and Beckett, 1981). […] Tumors were measured by caliper and treatment began when volume reached 100 mm^3.

In test [3] the test system is cSCC keratinocytes (SCCIC1, SCCRDEB2). The test is described as follows: MTS cell viability assay in cSCC keratinocytes. Format: cell-based, human. The following applies: 72 hours, GW843682X 10 μM, BI2536 5 μM. How it is done:
For the initial high-throughput RNAi screen we used a custom library to our 21 up regulated genes containing the top 3 siRNA oligonucleotides per gene as ranked by Sigma. In each experiment a negative control (MISSION® siRNA Universal Negative Control #1, Sigma) and positive control (AllStars Hs Cell Death Control siRNA, Qiagen) were used. Cells were seeded in 96-well plates at 5000 cells/well in 100 μl keratinocyte media and transfected 24 hours later with siRNA (40 nM final concentration) using Lipofectamine™ 2000, Invitrogen, Carlsbad, Calif.) diluted in Opti-MEM® (Invitrogen) according to manufacturers instructions. Cell viability was assessed at 48, 72 and 96 hours post-transfection, and a reading taken at time zero (pre-transfection), using the MTS CellTitre 96 AQueous One Solution Cell Proliferation Assay (Promega, Madison, Wis.) according to manufacturers instructions. Absorbance readings were taken at 490 nm using a VersaMax microplate reader (Molecular Devices, Sunnyvale, Calif.).
For RNAi transfection, cells were seeded in 6-well plates at 2.5×10^5 cells/well and 24 hours later transfected as described above. Cells were left for 16 hours then trypsinized, counted on a CASY counter (Roche Diagnostics Ltd, West Sussex, UK) and seeded in 96 well plates at 3000 cells/well in 100 μl media. […] Viability was assessed as before.

Test [4] deals with cSCC keratinocytes. The test is described as follows: Cell cycle analysis (BrdU / propidium iodide, flow cytometry). Format: cell-based, human. The following applies: 20 hours following drug treatment, GW843682X 10 μM, BI2536 5 μM. On the procedure:
Cells were RNAi transfected or drug treated for designated times before BrdU (Sigma) was added at 30 μM final volume for 20 min. Cells were collected and fixed by dropping 1 ml cell suspension in PBS into 3 ml ice cold ethanol while vortexing. Pepsin (Sigma) was added at 1 mg/ml in 30 mM HCL for 30 min and DNA denatured with 2N HCL for 20 min. Anti-BrdU antibody (Becton Dickinson) diluted in PBS/0.5% Tween/0.5% BSA was added for one hour followed by 30 min incubation with a FITC-sheep anti-mouse IgG (Sigma). Propidium iodide (Sigma) was added in the final wash step at a concentration of 25 μg/ml and samples analyzed using a FACScan flow cytometer and CellQuest software (Becton Dickinson).
Background: A flow cytometer gives signals particle by particle.

Entries after “also recorded” stand apart in the source; their conditions may differ.

With `CC[C@@H]1C(=O)N(C)c2cnc(Nc3ccc(C(=O)NC4CCN(C)CC4)cc3OC)nc2N1C1CCCC1` [BI2536], the “apoptosis (cleaved nucleosomes in the cytoplasm)” value with cSCC keratinocytes [1] is “substantial induction of apoptosis”. For the same compound, the “growth of normal primary keratinocytes (MTS assay)” value in test [2] was “no effect”. In the test on SCCIC1 xenograft tumors (BI2536 25 mg/kg injected into the tumor, 3 times a week, 2 weeks, treated versus control group), the “tumor volume at the end of the 6 cycles of treatment” value is reported as “no difference in tumor volume”. In addition, the “presence of tumor keratinocytes in the tumor (histology)” value in the test on SCCIC1 xenograft tumors (BI2536 25 mg/kg injected into the tumor, 3 times a week, after 2 weeks of treatment, versus vehicle, 25 mg/kg) is recorded as “without any discernable SCCIC1 tumor cells; also recorded: marked reduction in the presence of tumor keratinocytes”. Moreover, the “efficacy in treating cSCC in vivo” value in the test on SCCIC1 xenograft tumors (BI2536, SCCIC1 xenograft) is listed as “dramatic efficacy”. In addition, the “cell viability (MTS assay)” value in test [3] is given as “potent reduction of cell viability”. For the same compound, the “cell cycle distribution (G0/G1, S, G2/M)” value in the test with cSCC keratinocytes [4] was “accumulation of cells at the G2/M phase”.

`COc1cc2ncn(-c3cc(OCc4ccccc4C(F)(F)F)c(C(N)=O)s3)c2cc1OC` [GW843682X]: the “apoptosis (cleaved nucleosomes in the cytoplasm)” value in the test on cSCC keratinocytes [1] was “substantial induction of apoptosis”. Also, the “growth of normal primary keratinocytes (MTS assay)” value in test [2] is given as “no effect”. Also, the “cell viability (MTS assay)” value in test [3] is “potent reduction of cell viability”. In addition, the “cell cycle distribution (G0/G1, S, G2/M)” value in the test on cSCC keratinocytes [4] is “accumulation of cells at the G2/M phase”.

The record behind these values is US20130336987A1, “Identification of Therapeutic Targets in Cutaneous SCC” (UNIVERSITY OF DUNDEE, priority 2010, published 2013).
